Experimental data published in ChEMBL document CHEMBL4373709 (J Med Chem, 2019).
Calls of active or inactive are those of the source. The calls are words filed in the database; no cut-off is given here. Numbered stars: 1 amine (or outer) side, 2 acyl side, 3 side chain; on linkers, the order of the positions; unused ones are H or OH. Square brackets hold non-standard residues; d marks the D form. Peptide text beside a SMILES is read from it. X1 = NCCCC[C@H](N)CN([C@@H](CCCCN)C(=O)[*:2])[*:1]; Tle = CC(C)(C)[C@H](N)C(=O)O

What was measured:
[1] = target: T1, Neurotensin receptor type 1 (Homo sapiens, UniProt P30989); assay: Allosteric modulation of human GFP-fused PK-tagged Gq-coupled NTR1 expressed in CHOK1 cells assessed as induction of NT (8 to 13) peptide-mediated beta-arrestin recruitment measured after 90 mins by pathhunter assay; format: cell-based
[2] = target: Neurotensin receptor type 2 (Homo sapiens) (UniProt O95665); assay: Allosteric modulation of NTR2 (unknown origin) assessed as induction of NT (8 to 13) peptide-mediated beta-arrestin recruitment at >80 uM by pathhunter assay
[3] = target: T1, Neurotensin receptor type 1; assay: Agonist activity at NTR1 (unknown origin) expressed in CHO cells assessed as effect on calcium flux by Fluo-4 NW calcium dye based fluorescence assay; format: functional, cell-based
[4] = target: G-protein coupled receptor 35 (Homo sapiens) (UniProt Q9HC97); assay: Allosteric modulation of human PK-tagged Gi/Go-coupled GPR35 expressed in CHOK1 cells assessed as induction of zaprinast-mediated beta-arrestin recruitment by pathhunter assay; format: cell-based
[5] = target: G-protein coupled receptor 55 (Homo sapiens) (UniProt Q9Y2T6); assay: Allosteric modulation of human PK-tagged Gq-coupled GPR55 expressed in CHOK1 cells assessed as induction of L-alpha-Lysophosphatidylinositol-mediated beta-arrestin recruitment by pathhunter assay; format: functional, cell-based
[6] = target: Kappa-type opioid receptor (Homo sapiens) (UniProt P41145); assay: Allosteric modulation of human PK-tagged Gi/Go-coupled KOR expressed in CHOK1 cells assessed as induction of dynorphin A-mediated beta-arrestin recruitment by pathhunter assay; format: cell-based
[7] = Cmax in C57BL/6 mouse at 30 mg/kg, po by LC-MS/MS analysis; format: ADME, organism-based; parameters: dose 30 mg/kg, route oral; settings: in vivo
[8] = AUC in C57BL/6 mouse at 30 mg/kg, po by LC-MS/MS analysis; format: ADME, organism-based; settings: in vivo
[9] = Half life in C57BL/6 mouse at 30 mg/kg, po by LC-MS/MS analysis; format: ADME, organism-based; settings: in vivo
[10] = Oral bioavailability in C57BL/6 mouse at 30 mg/kg by LC-MS/MS analysis; format: ADME, organism-based; settings: mouse, in vivo
[11] = Ratio of drug level in brain to plasma of C57BL/6 mouse at 30 mg/kg, po measured after 1 hr by LC-MS/MS analysis; format: ADME, organism-based
[12] = Toxicity in DAT knockout C57BL/6J mouse assessed as hypotension at 1 mg/kg, ip; format: organism-based; settings: in vivo
[13] = Toxicity in DAT knockout C57BL/6J mouse assessed as hypothermia at 1 mg/kg, ip; format: organism-based; settings: in vivo
[14] = target: T1, Neurotensin receptor type 1; assay: Allosteric modulation of human GFP-fused PK-tagged Gq-coupled NTR1 expressed in CHOK1 cells assessed as induction of NT (8 to 13) peptide-mediated beta-arrestin recruitment measured after 90 mins by pathhunter assay relative to NT (8 to 13) peptide; format: cell-based
[15] = Clearance in C57BL/6 mouse at 5 mg/kg, iv by LC-MS/MS analysis; format: ADME, organism-based; settings: in vivo
[16] = Volume of distribution in C57BL/6 mouse at 5 mg/kg, iv by LC-MS/MS analysis; format: ADME, organism-based; settings: in vivo
[17] = Clearance in Sprague-Dawley rat at 5 mg/kg, iv by LC-MS/MS analysis; format: ADME, organism-based; settings: in vivo
[18] = Ratio of drug level in brain to plasma of Sprague-Dawley rat at 30 mg/kg, po measured after 4 to 8 hrs by LC-MS/MS analysis; format: ADME, organism-based; settings: brain and plasma, read-out: BPR
[19] = target: T1, Neurotensin receptor type 1; assay: Positive allosteric modulation of recombinant human NTR1 expressed in HEK293 cells assessed as increase in [125I]-neurotensin binding measured after 45 mins; format: cell-based
[20] = Toxicity in DAT knockout C57BL/6J mouse assessed as hypotension at 12 mg/kg, ip; format: organism-based; settings: in vivo
[21] = Toxicity in DAT knockout C57BL/6J mouse assessed as hypothermia at 12 mg/kg, ip; format: organism-based; settings: in vivo
[22] = target: T1, Neurotensin receptor type 1; assay: Positive allosteric modulation of recombinant human NTR1 expressed in HEK293 cells assessed as increase in [125I]-neurotensin binding measured after 45 mins relative to control; format: cell-based
[23] = target: Neurotensin receptor type 1 (Mus musculus) (UniProt O88319); assay: Positive allosteric modulation of NTR1 in ICR mouse brain assessed as increase in [125I]-neurotensin binding measured after 20 mins; format: tissue-based
[24] = target: Neurotensin receptor type 2 (Homo sapiens) (UniProt O95665); assay: Positive allosteric modulation of recombinant human NTR2 expressed in HEK293 cells assessed as increase in [125I]-neurotensin binding measured after 3 hrs; format: cell-based
[25] = target: T1, Neurotensin receptor type 1; assay: Allosteric modulation of human GFP-fused PK-tagged Gq-coupled NTR1 expressed in CHOK1 cells assessed as induction of NT (8 to 13) peptide-mediated beta-arrestin recruitment at 0.5 to 356 nM measured after 90 mins by pathhunter assay; format: cell-based
Mus musculus [26] = assay: Suppression of hyperlocomotion in DAT knockout C57BL/6J mouse assessed as reduction in total distance traveled at 12 mg/kg, ip measured up to 2 hrs by open field test; format: functional, organism-based
Mus musculus [27] = assay: Suppression of hyperlocomotion in DAT knockout C57BL/6J mouse assessed as reduction in total distance traveled at 10 to 100 mg/kg, po measured up to 2 hrs by open field test; format: functional, organism-based
[28] = target: T2, Alpha-2A adrenergic receptor (Homo sapiens) (UniProt P08913); assay: Binding affinity to alpha2A adrenoceptor (unknown origin) at 5 uM relative to control
T2 sequence (whole entry): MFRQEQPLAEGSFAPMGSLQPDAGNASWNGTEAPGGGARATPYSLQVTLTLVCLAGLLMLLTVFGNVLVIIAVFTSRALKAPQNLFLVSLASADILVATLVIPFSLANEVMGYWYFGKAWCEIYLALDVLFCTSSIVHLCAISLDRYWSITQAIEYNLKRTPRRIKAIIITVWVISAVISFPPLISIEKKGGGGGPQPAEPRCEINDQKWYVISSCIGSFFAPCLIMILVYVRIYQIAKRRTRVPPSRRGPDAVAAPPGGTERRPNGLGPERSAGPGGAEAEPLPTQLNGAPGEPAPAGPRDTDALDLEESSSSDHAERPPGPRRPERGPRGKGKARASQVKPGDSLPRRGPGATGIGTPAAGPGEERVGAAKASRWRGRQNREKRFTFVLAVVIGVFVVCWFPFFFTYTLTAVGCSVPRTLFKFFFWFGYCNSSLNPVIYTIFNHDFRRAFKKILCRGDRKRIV

[29] = target: D(1A) dopamine receptor (Homo sapiens) (UniProt P21728); assay: Binding affinity to D1R (unknown origin) at 5 uM relative to control
[30] = target: Histamine H1 receptor (Homo sapiens) (UniProt P35367); assay: Binding affinity to H1R (unknown origin) at 5 uM relative to control
[31] = target: 5-hydroxytryptamine receptor 2B (Homo sapiens) (UniProt P41595); assay: Binding affinity to 5HT2B (unknown origin) at 5 uM relative to control
Sequence of 5-hydroxytryptamine receptor 2B (Homo sapiens) (P41595 whole entry): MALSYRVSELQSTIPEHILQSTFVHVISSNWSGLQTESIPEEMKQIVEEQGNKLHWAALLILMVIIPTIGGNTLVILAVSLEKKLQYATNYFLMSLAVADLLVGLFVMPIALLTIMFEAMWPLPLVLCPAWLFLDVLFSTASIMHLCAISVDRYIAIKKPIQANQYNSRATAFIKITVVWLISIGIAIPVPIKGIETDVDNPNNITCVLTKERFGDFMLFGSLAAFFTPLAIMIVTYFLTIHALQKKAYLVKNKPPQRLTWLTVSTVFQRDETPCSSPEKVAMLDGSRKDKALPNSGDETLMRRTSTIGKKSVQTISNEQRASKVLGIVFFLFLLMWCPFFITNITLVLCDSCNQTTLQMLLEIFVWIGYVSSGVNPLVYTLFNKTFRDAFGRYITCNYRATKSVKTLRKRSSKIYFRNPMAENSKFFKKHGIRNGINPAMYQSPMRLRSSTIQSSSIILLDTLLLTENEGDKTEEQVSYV

Sequence of Neurotensin receptor type 2 (Homo sapiens) (O95665 whole entry, the tested form may be a part): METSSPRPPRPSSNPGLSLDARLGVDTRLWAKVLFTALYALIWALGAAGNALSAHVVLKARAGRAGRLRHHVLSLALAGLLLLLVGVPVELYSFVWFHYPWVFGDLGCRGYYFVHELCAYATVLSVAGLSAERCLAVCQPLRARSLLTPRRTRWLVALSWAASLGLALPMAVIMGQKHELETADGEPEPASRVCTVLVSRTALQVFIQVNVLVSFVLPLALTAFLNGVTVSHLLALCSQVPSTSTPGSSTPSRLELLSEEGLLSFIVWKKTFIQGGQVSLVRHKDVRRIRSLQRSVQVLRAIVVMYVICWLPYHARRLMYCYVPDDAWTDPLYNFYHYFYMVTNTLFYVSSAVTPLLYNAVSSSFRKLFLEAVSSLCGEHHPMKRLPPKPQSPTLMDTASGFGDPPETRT
T1 sequence (P30989 whole entry, the tested form may be a part): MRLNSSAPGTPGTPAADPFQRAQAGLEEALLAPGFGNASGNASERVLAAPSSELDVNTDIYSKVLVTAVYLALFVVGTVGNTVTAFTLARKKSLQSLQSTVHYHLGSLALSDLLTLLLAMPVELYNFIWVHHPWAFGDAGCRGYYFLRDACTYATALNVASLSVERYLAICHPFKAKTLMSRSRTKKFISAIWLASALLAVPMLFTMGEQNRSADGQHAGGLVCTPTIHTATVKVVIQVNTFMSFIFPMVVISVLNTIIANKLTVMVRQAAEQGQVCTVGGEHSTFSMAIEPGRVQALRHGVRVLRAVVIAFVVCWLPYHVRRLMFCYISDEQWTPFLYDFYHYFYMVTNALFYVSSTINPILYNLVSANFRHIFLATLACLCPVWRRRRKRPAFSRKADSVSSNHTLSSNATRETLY
Sequence of Kappa-type opioid receptor (Homo sapiens) (P41145 whole entry): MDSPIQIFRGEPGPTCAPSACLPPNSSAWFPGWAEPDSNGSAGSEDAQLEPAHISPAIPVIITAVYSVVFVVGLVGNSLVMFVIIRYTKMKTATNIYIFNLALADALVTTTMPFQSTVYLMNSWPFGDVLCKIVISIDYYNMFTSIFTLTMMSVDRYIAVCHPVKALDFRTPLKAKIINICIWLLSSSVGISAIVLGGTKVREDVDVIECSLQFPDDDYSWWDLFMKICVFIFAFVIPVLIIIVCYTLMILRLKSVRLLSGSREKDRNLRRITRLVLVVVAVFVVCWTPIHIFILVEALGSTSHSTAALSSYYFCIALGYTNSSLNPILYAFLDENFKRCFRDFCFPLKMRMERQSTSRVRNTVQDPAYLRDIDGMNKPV
Sequence of G-protein coupled receptor 55 (Homo sapiens) (Q9Y2T6 whole entry): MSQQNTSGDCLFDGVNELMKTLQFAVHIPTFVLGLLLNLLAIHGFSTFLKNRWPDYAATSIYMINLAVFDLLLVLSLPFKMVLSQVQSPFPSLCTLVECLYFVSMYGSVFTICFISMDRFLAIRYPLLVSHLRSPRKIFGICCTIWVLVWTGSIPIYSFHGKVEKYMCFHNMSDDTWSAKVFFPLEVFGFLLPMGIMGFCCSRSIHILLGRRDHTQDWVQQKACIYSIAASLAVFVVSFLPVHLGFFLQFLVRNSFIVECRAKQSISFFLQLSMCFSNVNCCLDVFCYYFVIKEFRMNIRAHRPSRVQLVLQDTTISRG
Sequence of G-protein coupled receptor 35 (Homo sapiens) (Q9HC97 whole entry): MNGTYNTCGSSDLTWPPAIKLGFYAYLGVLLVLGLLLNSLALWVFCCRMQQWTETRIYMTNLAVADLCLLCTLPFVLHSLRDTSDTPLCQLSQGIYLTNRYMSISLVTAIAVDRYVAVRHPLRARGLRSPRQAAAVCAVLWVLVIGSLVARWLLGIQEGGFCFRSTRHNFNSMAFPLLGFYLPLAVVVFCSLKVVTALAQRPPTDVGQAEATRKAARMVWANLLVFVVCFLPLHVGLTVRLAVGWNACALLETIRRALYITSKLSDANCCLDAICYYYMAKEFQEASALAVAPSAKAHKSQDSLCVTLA
Sequence of Histamine H1 receptor (Homo sapiens) (P35367 whole entry): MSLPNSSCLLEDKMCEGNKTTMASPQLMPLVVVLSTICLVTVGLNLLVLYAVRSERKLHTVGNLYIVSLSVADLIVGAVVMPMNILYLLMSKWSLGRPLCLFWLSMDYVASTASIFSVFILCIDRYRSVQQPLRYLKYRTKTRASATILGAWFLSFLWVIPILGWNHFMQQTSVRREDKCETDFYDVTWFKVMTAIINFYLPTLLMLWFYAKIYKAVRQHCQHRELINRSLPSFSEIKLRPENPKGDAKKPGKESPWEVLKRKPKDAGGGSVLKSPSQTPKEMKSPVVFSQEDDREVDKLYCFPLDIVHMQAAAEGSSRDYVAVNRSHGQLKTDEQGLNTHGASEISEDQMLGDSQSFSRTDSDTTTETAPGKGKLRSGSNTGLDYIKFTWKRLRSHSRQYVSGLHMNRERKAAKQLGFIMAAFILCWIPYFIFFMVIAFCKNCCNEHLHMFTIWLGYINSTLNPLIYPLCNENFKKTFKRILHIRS
Sequence of D(1A) dopamine receptor (Homo sapiens) (P21728 whole entry): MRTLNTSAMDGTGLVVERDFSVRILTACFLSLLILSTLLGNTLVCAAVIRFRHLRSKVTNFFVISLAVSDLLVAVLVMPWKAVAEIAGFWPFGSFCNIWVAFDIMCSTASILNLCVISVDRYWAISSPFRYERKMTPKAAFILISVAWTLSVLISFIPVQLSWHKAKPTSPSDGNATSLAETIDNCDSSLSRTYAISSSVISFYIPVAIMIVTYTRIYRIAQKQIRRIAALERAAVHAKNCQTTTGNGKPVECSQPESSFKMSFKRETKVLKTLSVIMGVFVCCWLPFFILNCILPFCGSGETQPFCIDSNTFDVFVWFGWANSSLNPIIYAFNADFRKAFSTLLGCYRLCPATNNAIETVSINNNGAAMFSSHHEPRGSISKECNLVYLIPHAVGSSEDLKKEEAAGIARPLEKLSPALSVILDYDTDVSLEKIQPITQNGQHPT
Sequence of Neurotensin receptor type 1 (Mus musculus) (O88319 whole entry): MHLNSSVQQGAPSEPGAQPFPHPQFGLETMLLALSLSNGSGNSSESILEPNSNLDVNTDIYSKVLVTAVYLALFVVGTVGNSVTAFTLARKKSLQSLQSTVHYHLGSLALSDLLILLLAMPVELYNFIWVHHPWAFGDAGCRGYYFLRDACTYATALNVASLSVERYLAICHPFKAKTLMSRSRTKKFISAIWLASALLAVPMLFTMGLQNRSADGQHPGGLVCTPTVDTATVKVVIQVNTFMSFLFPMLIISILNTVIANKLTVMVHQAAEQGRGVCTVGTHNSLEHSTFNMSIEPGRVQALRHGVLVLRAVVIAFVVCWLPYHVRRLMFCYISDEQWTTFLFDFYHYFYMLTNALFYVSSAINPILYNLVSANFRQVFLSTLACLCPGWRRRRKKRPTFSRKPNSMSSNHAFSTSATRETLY

Row | Compound | EC50 [1] | Activity [2] | Emax [14] | further results
1 | COc1cc2nc(C3CC3)nc(N3CCN(c4ccccc4OC)CC3)c2cc1OC | 2870 nM | inactive | – | Activity [3]: inactive; Activity [4]: inactive; Activity [5]: inactive; Activity [6]: inactive
2 | COc1ccccc1C1CCN(c2nc(C3(C)CC3)nc3ccc(N(C)CCO)cc23)CC1.Cl | – | – | – | Cmax [7]: 627 ng/mL; AUC [8]: 3324 ng·h/mL; t1/2 [9]: 2.9 h; F [10]: 52%; BPR [11]: 0.35
3 | CCOC(=O)[C@H](CC(C)C)NC(=O)[C@@H](NC(=O)[C@H](Cc1c[nH]c2ccccc12)NC(=O)[C@@H]1CCCN1C(=O)[C@H](CCCCN)NC[C@@H](N)CCCCN)C(C)(C)C (H-[X1]PW[Tle]L-OEt) | – | – | – | Activity [12]: Toxic; Activity [13]: Toxic
4 | COc1ccccc1C1CCN(c2nc(C3CC3)nc3ccc(N4CC[C@H](OC)C4)cc23)CC1 | 810 nM | inactive | 82% | –
5 | COc1ccccc1C1CCN(c2nc(C3(F)CC3)nc3ccc(N(C)CCN4CCOCC4)cc23)CC1 | 1720 nM | inactive | 97% | –
6 | COc1ccccc1C1CCN(c2nc(C3CC3)nc3ccc(N(C)CCN4CCOCC4)cc23)CC1 | 810 nM | inactive | 92% | –
7 | COc1ccccc1C1CCN(c2nc(C3CC3)nc3ccc(N(C)CCO)c(F)c23)CC1 | 590 nM | inactive | 95% | –
8 | COc1ccccc1C1CCN(c2nc(C3(C(F)(F)F)CC3)nc3ccc(N(C)CCN4CCOCC4)cc23)CC1 | 3810 nM | inactive | 78% | –
9 | COc1ccccc1C1CCN(c2nc(C3CC3)nc3ccc(N4CCC(O)CC4)cc23)CC1 | 6720 nM | inactive | 82% | –
10 | COc1ccccc1C1CCN(c2nc(-c3ccccc3)nc3ccc(N(C)CCO)cc23)CC1 | 4230 nM | inactive | 70% | –
11 | COc1ccccc1C1CCN(c2nc(C3CC3)nc3ccc(N4CC[C@H](O)C4)cc23)CC1 | 1010 nM | inactive | 78% | –
12 | COc1ccccc1C1CCN(c2nc(C3(C(F)(F)F)CC3)nc3ccc(N(C)CCO)cc23)CC1 | 340 nM | inactive | 94% | –
13 | CCCN(C)c1cc2c(N3CCC(c4ccccc4OC)CC3)nc(C3CC3)nc2cc1C | 990 nM | inactive | 86% | –

Further lines, with some results ahead:

Row | EC50 [1] | Activity [2] | Emax [14] | Compound | further results
14 | 220 nM | inactive | 95% | COc1ccccc1C1CCN(c2nc(C3CC3)nc3c(Cl)cc(N(C)CCO)cc23)CC1 | –
15 | 1050 nM | inactive | 80% | COc1ccccc1C1CCN(c2nc(C3CCC3)nc3ccc(N(C)CCO)cc23)CC1 | –
16 | 888 nM | inactive | 89% | COc1ccccc1C1CCN(c2nc(C3CC3)nc3ccc(N(C)C)cc23)CC1 | –
17 | 98 nM | – | – | COc1ccccc1C1CCN(c2nc(C3(C)CC3)nc3ccc(N(C)CCO)cc23)CC1 | clearance [15]: 79.4 mL/min/kg; Vd [16]: 7.68 L/kg
18 | 560 nM | inactive | 88% | COc1ccccc1C1CCN(c2nc(C3CC3)nc3cc(C)c(N(C)CCO)cc23)CC1 | –
19 | 160 nM | inactive | 87% | COc1ccccc1C1CCN(c2nc(C3CC3)nc3c(C)cc(N(C)CCO)cc23)CC1 | –
20 | 1480 nM | inactive | 75% | COc1ccccc1C1CCN(c2nc(C3(C)CCC3)nc3ccc(N(C)CCO)cc23)CC1 | –
21 | 340 nM | – | – | COc1ccccc1C1CCN(c2nc(C3(F)CC3)nc3ccc(N(C)CCO)cc23)CC1 [listing 1 of 2 here] | clearance [15]: 44.8 mL/min/kg; clearance [17]: 81 mL/min/kg; Kp [18]: 0.98; EC50 [19]: 140 nM; Activity [20]: Non-Toxic; Activity [21]: Non-Toxic
22 | 732 nM | inactive | 68% | CCCN(C)c1ccc2nc(C3CC3)nc(N3CCC(c4ccccc4OC)CC3)c2c1 | –
23 | – | inactive | 100% | COc1ccccc1C1CCN(c2nc(C3(F)CC3)nc3ccc(N(C)CCO)cc23)CC1 [listing 2 of 2 here] | Activity [3]: inactive; Emax [22]: 140%; Activity [23]: Active; Activity [24]: inactive; Activity [25]: inactive; Activity [4]: inactive; Activity [5]: inactive; Activity [6]: inactive; Activity (Mus musculus [26]): Active; Activity (Mus musculus [27]): Active; Activity [28]: 55%; Activity [29]: 36%; Activity [30]: 75%; Activity [31]: 42%
24 | 560 nM | inactive | 80% | CCN(C)c1ccc2nc(C3CC3)nc(N3CCC(c4ccccc4OC)CC3)c2c1 | –
25 | 600 nM | inactive | 98% | COc1ccccc1C1CCN(c2nc(C3CC3)nc3cc(Cl)c(N(C)CCO)cc23)CC1 | –
26 | 1120 nM | inactive | 79% | COCCN(C)c1ccc2nc(C3CC3)nc(N3CCC(c4ccccc4OC)CC3)c2c1 | –
